Some test systems named below: SK-MEL-5 melanoma; SK-MEL-28 melanoma; 786-0 renal; EKVX NSCLC; MOLT-4 leukemia; RXF 393 renal; NCI-H460 lung; RPMI-8226 leukemia; HCT-15 colon; SK-OV-3 ovarian.
Common to all, as to assay: inhibition of tumour cell growth, NCI panel, 48 h

Several values for one entry are separate records, joined by “and”; a condition that tells them apart may be missing. Equal entries are not always repeated.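 Compound exposure: 48 hours, 5 concentrations, 96-well plates. The concentration for 50% growth inhibition is given as GI50. TGI: total growth inhibition.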 Where a SMILES comes first, the peptide text is derived from it. [ ]: non-standard residue; d: D form. The star is where a group is joined. Bn2Val = CC(C)[C@@H](C(=O)*)N(Cc1ccccc1)Cc1ccccc1; NH(3,4-diMeO-benzyl) = COc1ccc(CN*)cc1OC; NMeV = CN[C@H](C(=O)O)C(C)C; dNMeA = CN[C@H](C)C(=O)O

As to `COC(=O)[C@@H](C)C[C@H](Cc1ccccc1)NC(=O)c1nc([C@@H](C[C@H](C(C)C)N(C)C(=O)[C@@H](NC(=O)[C@H]2CCCN2C)C(C)C)OC(C)=O)sc1C`, the GI50 is below 0.0025 µM in the assay on SK-MEL-5 melanoma; 0.0165 µM with SK-MEL-28 melanoma; below 0.0025 µM in the assay on 786-0 renal; 0.0106 µM with EKVX NSCLC; 0.00278 µM in the assay on MOLT-4 leukemia; below 0.0025 µM with RXF 393 renal. Further, the GI50 was below 0.0025 µM with NCI-H460 lung, below 0.0025 µM in the assay on RPMI-8226 leukemia, 0.0119 µM with HCT-15 colon and below 0.0025 µM with SK-OV-3 ovarian. In addition, the TGI with SK-MEL-5 melanoma was 0.0698 µM; in the assay with SK-MEL-28 melanoma, above 25 µM; with 786-0 renal, 24.2 µM; with EKVX NSCLC, above 25 µM; in the assay with MOLT-4 leukemia, above 25 µM; in the assay on RXF 393 renal, above 25 µM. The TGI in the assay on NCI-H460 lung, with RPMI-8226 leukemia, with HCT-15 colon and in the assay on SK-OV-3 ovarian was above 25 µM in each case.
With `O=C1NC(=O)C2C(=O)NC(=O)C1C2(c1ccccc1)c1ccc(Cl)cc1` (stereo not drawn), the TGI with SK-MEL-5 melanoma, in the assay on SK-MEL-28 melanoma, with 786-0 renal, with EKVX NSCLC, with MOLT-4 leukemia and in the assay on RXF 393 renal was above 100 µM in each case. Moreover, the TGI in the assay on NCI-H460 lung, in the assay with RPMI-8226 leukemia, in the assay on HCT-15 colon and in the assay with SK-OV-3 ovarian was above 100 µM throughout.
For `ClCc1ccccc1CSc1ncnc2nc[nH]c12`, the GI50 in the assay with SK-MEL-5 melanoma, in the assay with SK-MEL-28 melanoma, with 786-0 renal, with EKVX NSCLC, in the assay with MOLT-4 leukemia and in the assay with RXF 393 renal was above 60 µM each time. Besides, the GI50 with NCI-H460 lung, in the assay on RPMI-8226 leukemia, in the assay on HCT-15 colon and in the assay on SK-OV-3 ovarian was above 60 µM each time. Also, the TGI in the assay with SK-MEL-5 melanoma, in the assay with SK-MEL-28 melanoma, with 786-0 renal, in the assay with EKVX NSCLC, in the assay with MOLT-4 leukemia and in the assay on RXF 393 renal was above 60 µM in each case. Moreover, the TGI with NCI-H460 lung, with RPMI-8226 leukemia, in the assay on HCT-15 colon and with SK-OV-3 ovarian was above 60 µM in each case.
As for `CC1=C2[C@@H](CC1)[C@]1(C)O[C@@](C(C)C)(C[C@H]1OC(=O)[C@H](C)O)[C@H]2OC(=O)/C=C/c1ccccc1`, the GI50 in the assay on SK-MEL-5 melanoma is 13.6 µM; in the assay on SK-MEL-28 melanoma, 16.5 µM; in the assay with 786-0 renal, 3.26 µM; with EKVX NSCLC it was 6.19 µM; in the assay on MOLT-4 leukemia, 10.7 µM; with RXF 393 renal, 0.111 µM. Moreover, the GI50 with NCI-H460 lung is 14.8 µM; with RPMI-8226 leukemia, 7.9 µM; in the assay with HCT-15 colon, 11.2 µM; in the assay on SK-OV-3 ovarian it was 15.3 µM. The TGI with SK-MEL-5 melanoma turned out to be 26.7 µM; in the assay with SK-MEL-28 melanoma, 34.3 µM; in the assay on 786-0 renal, 25.4 µM; in the assay on EKVX NSCLC, 21.7 µM; in the assay with MOLT-4 leukemia, 32 µM; with RXF 393 renal it was 2.41 µM. Also, the TGI in the assay on NCI-H460 lung was determined as 36.7 µM; in the assay on RPMI-8226 leukemia, 30.8 µM; in the assay with HCT-15 colon, 25.4 µM; in the assay on SK-OV-3 ovarian, 38 µM.
Turning to `O=C(O)Cc1c[nH]c2ccc(F)cc12`, the TGI in the assay with SK-MEL-5 melanoma, in the assay with SK-MEL-28 melanoma, in the assay on 786-0 renal, with EKVX NSCLC, with MOLT-4 leukemia and with RXF 393 renal was above 100 µM each time. The TGI in the assay with NCI-H460 lung, in the assay on RPMI-8226 leukemia, with HCT-15 colon and with SK-OV-3 ovarian was above 100 µM in each case.
On to `COC(=O)C(CC(=O)c1cc2c(cc1I)OCO2)Cc1cc(OC)c(OC)c(OC)c1I` (stereo not drawn), for which the TGI in the assay on SK-MEL-5 melanoma, with SK-MEL-28 melanoma, with 786-0 renal, with EKVX NSCLC, in the assay with MOLT-4 leukemia and with RXF 393 renal was above 100 µM throughout. The TGI with NCI-H460 lung, in the assay with RPMI-8226 leukemia, in the assay on HCT-15 colon and in the assay with SK-OV-3 ovarian was above 100 µM throughout.
Regarding `CN1CCN(Cc2ccc(NC(=O)c3cncc(C#Cc4cnc(N)c5ccccc45)c3)cc2C(F)(F)F)CC1`, the GI50 in the assay with SK-MEL-5 melanoma was 0.537 µM; with SK-MEL-28 melanoma, 0.513 µM; in the assay with 786-0 renal it was 0.423 µM; in the assay on EKVX NSCLC, 0.413 µM; in the assay with MOLT-4 leukemia, 0.164 µM; with RXF 393 renal it was 0.163 µM. Besides, the GI50 in the assay on NCI-H460 lung is 0.158 µM; in the assay with RPMI-8226 leukemia, 0.441 µM; in the assay on HCT-15 colon, 0.124 µM; with SK-OV-3 ovarian, 0.199 µM. In addition, the TGI is 0.994 µM in the assay with SK-MEL-5 melanoma; 0.988 µM in the assay with SK-MEL-28 melanoma; 0.89 µM in the assay on 786-0 renal; 0.974 µM in the assay on EKVX NSCLC; 1.16 µM with MOLT-4 leukemia; 0.563 µM with RXF 393 renal. For the same compound, the TGI in the assay on NCI-H460 lung was determined as 0.581 µM; in the assay with RPMI-8226 leukemia, 1.41 µM; in the assay with HCT-15 colon, 0.534 µM; in the assay on SK-OV-3 ovarian, 0.638 µM.
For the compound `COc1ccc(CNC(=O)[C@@H](C)N(C)C(=O)[C@@H]2CCCN2C(=O)[C@H](C(C)C)N(C)C(=O)[C@@H](NC(=O)[C@H](C(C)C)N(Cc2ccccc2)Cc2ccccc2)C(C)C)cc1OC` (Bn2Val-V[NMeV]P[dNMeA]-{NH(3,4-diMeO-benzyl)}), the TGI in the assay on SK-MEL-5 melanoma is 12.1 µM; with SK-MEL-28 melanoma it was 17.6 µM and 28.3 µM; with 786-0 renal, 21.3 µM and 28.3 µM; in the assay with EKVX NSCLC, 50 µM and 49.1 µM; in the assay with MOLT-4 leukemia, 23.9 µM and 11.7 µM; with RXF 393 renal it was 12.8 µM and 15 µM. Further, the TGI in the assay with NCI-H460 lung is 50 µM and 37.9 µM; with RPMI-8226 leukemia, 20 µM and 18.6 µM; in the assay with HCT-15 colon it was 21.5 µM and 28.8 µM; in the assay on SK-OV-3 ovarian, 36.3 µM and 96.7 µM. In addition, the GI50 with SK-MEL-28 melanoma was 13.5 µM; in the assay with 786-0 renal it was 11.4 µM; in the assay on EKVX NSCLC, 10.4 µM; in the assay with MOLT-4 leukemia, 0.475 µM; with RXF 393 renal, 3.61 µM; in the assay with NCI-H460 lung, 8.21 µM. The GI50 is 5.98 µM in the assay on HCT-15 colon and 23.6 µM with SK-OV-3 ovarian.
As to `O=C(Nc1ccccc1[N+](=O)[O-])c1ccccc1`, the TGI in the assay on SK-MEL-5 melanoma, with SK-MEL-28 melanoma, in the assay with 786-0 renal, with EKVX NSCLC, with MOLT-4 leukemia and in the assay on RXF 393 renal was above 100 µM in each case. For the same compound, the TGI in the assay with NCI-H460 lung, in the assay on RPMI-8226 leukemia, with HCT-15 colon and in the assay with SK-OV-3 ovarian was above 100 µM in each case.

(Values after PubChem BioAssay (NCI).)
